Read-outs that look alike come from different tables or passages of the source. Starred links: 1 amine or outer side, 2 acyl side, 3 side chain; linkers in the order of their positions; H or OH if unused. Non-standard residues stand in square brackets, D forms with d. Residues, ends and D or L forms follow the SMILES beside them. Groups on a side chain read outwards from the residue. No end group written: not given here. *: point of attachment. C20 diacid = O=C(O)CCCCCCCCCCCCCCCCCCC(=O)*; C18 diacid = O=C(O)CCCCCCCCCCCCCCCCC(=O)*; Phe(4-CN) = N#Cc1ccc(C[C@H](N)C(=O)O)cc1; αMePhe(2-F) = C[C@](N)(Cc1ccccc1F)C(=O)O; γGlu = O=C(O)[C@H](CCC(=O)[*:2])N[*:1]; αMe4Pal = C[C@](N)(Cc1ccncc1)C(=O)O; αMeY = C[C@](N)(Cc1ccc(O)cc1)C(=O)O; αMeF = C[C@](N)(Cc1ccccc1)C(=O)O; 4Pal = N[C@@H](Cc1ccncc1)C(=O)O; αMeL = CC(C)C[C@](C)(N)C(=O)O; αMeS = C[C@](N)(CO)C(=O)O; Orn = NCCC[C@H](N)C(=O)O; AEEA = NCCOCCOCC(=O)O; Aib = CC(C)(N)C(=O)O
Columns and labels:
Assay type in all cases: cell-based
hGIPR [1] = biological target: T1, hGIPR (Homo sapiens, UniProt P48546); assay: Functional cAMP activation in the presence of 0.1% casein (no HSA); settings: read-out: Relative cAMP EC50, hGIPR;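 note: intracellular cAMP rise after 30 min at 37 °C read by HTRF against a standard curve, scaled between buffer alone (0%) and top control ligand concentration (100%), four-parameter fit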
T1 sequence (P48546 22-466): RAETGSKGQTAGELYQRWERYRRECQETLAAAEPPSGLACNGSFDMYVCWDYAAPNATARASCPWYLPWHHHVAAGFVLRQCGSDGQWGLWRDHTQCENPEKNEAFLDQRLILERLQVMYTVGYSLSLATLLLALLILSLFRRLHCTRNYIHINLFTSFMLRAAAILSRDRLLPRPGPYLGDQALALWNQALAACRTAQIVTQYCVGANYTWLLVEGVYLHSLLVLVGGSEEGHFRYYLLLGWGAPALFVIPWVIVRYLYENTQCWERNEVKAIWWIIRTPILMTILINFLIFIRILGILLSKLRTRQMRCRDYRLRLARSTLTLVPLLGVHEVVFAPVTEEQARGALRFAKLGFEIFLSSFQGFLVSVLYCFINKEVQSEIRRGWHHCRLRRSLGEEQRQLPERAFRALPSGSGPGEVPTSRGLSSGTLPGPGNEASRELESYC

hGcgR = hGcgR (Homo sapiens, UniProt P47871); assay: as above; settings: read-out: Relative cAMP EC50, hGcgR;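 note: intracellular cAMP rise after 30 min at 37 °C, read by HTRF against a cAMP standard curve, scaled from buffer only (0%) to maximal control ligand response (100%)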
hGLP-1R [2] = biological target: T2, hGLP-1R (Homo sapiens, UniProt P43220); assay: Functional cAMP activity in the presence of 1% HSA; settings: read-out: cAMP Rel EC50, hGLP-1R
hGIPR [3] = biological target: T1, hGIPR; assay: Functional cAMP activity in the presence of 1% HSA; settings: read-out: cAMP Rel EC50, hGIPR
hGLP-1R [4] = biological target: T2, hGLP-1R; assay: Functional cAMP activation in the presence of 0.1% casein (no HSA); settings: read-out: Relative cAMP EC50, hGLP-1R;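 for Relative cAMP EC50, hGLP-1R: intracellular cAMP rise after 30 min at 37 °C read by HTRF, normalized between buffer only (0%) and maximal control ligand (100%), four-parameter variable-slope fit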;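 for Relative cAMP EC50, hGcgR: intracellular cAMP rise after 30 min at 37 °C, read by HTRF against a cAMP standard curve, scaled from buffer only (0%) to maximal control ligand response (100%)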
human GcgR = human GcgR (Homo sapiens, UniProt P47871); assay: Functional cAMP activity in the presence of 1% HSA; settings: read-out: cAMP Rel EC50, hGcgR
[5] = in the presence of 0.1% casein (no HSA), geometric mean
[6] = HEK-293 clonal cell line, in the presence of 1% HSA, geometric mean of relative EC50

T2 sequence (P43220 24-463): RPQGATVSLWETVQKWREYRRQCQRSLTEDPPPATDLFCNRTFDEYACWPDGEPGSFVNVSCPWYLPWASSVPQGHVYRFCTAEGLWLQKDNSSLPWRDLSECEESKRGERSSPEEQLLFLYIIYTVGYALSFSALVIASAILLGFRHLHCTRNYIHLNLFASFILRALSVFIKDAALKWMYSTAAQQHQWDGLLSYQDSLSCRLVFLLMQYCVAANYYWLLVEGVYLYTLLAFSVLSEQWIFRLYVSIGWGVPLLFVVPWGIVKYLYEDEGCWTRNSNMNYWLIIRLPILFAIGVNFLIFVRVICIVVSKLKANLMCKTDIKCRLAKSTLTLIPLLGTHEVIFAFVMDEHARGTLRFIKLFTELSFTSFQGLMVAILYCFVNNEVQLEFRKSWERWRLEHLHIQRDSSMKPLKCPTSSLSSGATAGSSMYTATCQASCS
human GcgR, sequence (P47871 26-477): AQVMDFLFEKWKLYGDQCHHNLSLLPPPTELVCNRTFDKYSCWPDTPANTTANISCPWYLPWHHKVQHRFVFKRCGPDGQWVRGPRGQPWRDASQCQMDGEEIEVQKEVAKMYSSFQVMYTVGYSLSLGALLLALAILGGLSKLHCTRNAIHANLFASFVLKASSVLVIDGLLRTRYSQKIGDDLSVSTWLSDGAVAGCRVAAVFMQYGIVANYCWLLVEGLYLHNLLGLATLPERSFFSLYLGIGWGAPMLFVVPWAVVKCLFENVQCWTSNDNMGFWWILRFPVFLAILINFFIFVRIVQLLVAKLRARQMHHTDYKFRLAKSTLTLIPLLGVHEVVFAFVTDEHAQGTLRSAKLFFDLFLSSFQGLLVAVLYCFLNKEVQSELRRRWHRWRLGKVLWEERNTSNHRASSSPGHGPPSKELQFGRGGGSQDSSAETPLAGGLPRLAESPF
hGcgR, sequence (P47871 26-477): as above

Molecule	EC50 (hGIPR [1]; [5])	EC50 (hGcgR; [5])	EC50 (hGLP-1R [2])	EC50 (hGIPR [3])	EC50 (hGLP-1R [4]; [5])	EC50 (human GcgR)	EC50 (hGIPR [1])	EC50 (hGcgR)	EC50 (hGLP-1R [4])	EC50 (hGLP-1R [2]; [6])	EC50 (hGIPR [3]; [6])	EC50 (human GcgR; [6])
H-Y[Aib]QGTFTSD[4Pal]SQ[αMeL]LDKK([AEEA-γGlu-C18 diacid])AQ[αMe4Pal]AFIEYLIE[Aib]GPSSGAPPPSGE-NH2 [Example 881]	0.211 nM	4.09 nM	321 nM	30.1 nM	2.87 nM	507 nM						
H-Y[Aib]QGT[αMePhe(2-F)]TSDYSILLDKQAAK([AEEA-AEEA-γGlu-C20 diacid])EFIEYLIEGGPSSGEPPPSEG-NH2 [Example 348]	0.127 nM	3.9 nM	136 nM	36.4 nM	0.346 nM	1250 nM						
H-Y[Aib]QGTFTSDYSI[αMeL]LD[Orn]QAAK([AEEA-AEEA-γGlu-C20 diacid])QFVEWLLA[Aib]GPSSGEPPPSEG-NH2 [Example 328]	0.544 nM	10.3 nM	462 nM	91.1 nM	1.3 nM	2040 nM						
H-Y[Aib]QGTFTSD[4Pal][αMeS]I[αMeL]LD[Orn]K([dE-γGlu-C18 diacid])AQ[αMe4Pal]QFIQ[αMeY]LIE[Aib]GPSSGAPPPSGGGE-NH2 [Example 1136]	0.0131 nM	1.26 nM	39.2 nM	0.949 nM	0.453 nM	121 nM						
H-Y[Aib]QGTFTSDYSK[αMeL]LDKK([AEEA-γGlu-C20 diacid])AQQAFVQWLIE[dA]GPSSGEPPPSEG-NH2 [Example 342]	0.347 nM	10.2 nM	62 nM	71.3 nM	0.419 nM	2130 nM						
Y[Aib]QGTFTSDFS[Orn][αMeL]LDKK([AEEA-γGlu-C18 diacid])AQ[Aib]AFIEWLLEGGHSSGAPPPGGE-NH2 [Example 273]	0.243 nM	6.96 nM	516 nM	21.8 nM	4.02 nM	1770 nM						
H-Y[Aib]QGT[αMePhe(2-F)]TSD[4Pal][αMeS]I[αMeL]LD[Orn]K([γGlu-γGlu-C18 diacid])AQ[Aib]NFI[dE][αMeY]LIEGGPSSGEPEPEEG-NH2 [Example 474]			10.6 nM	0.743 nM		166 nM	0.0125 nM	3.88 nM	0.236 nM			
H-Y[Aib]QGTFTSD[4Pal]SQ[αMeL]LD[Orn]K([AEEA-γGlu-γGlu-C18 diacid])AQ[αMe4Pal]AFIEYLIE[dA]GPSSGEPPPSGS-NH2 [Example 1018]	0.51 nM	5.29 nM	163 nM	14.1 nM	1.69 nM	568 nM						
H-Y[Aib]QGTFTSD[4Pal]SQ[αMeL]LDKK([AEEA-γGlu-γGlu-C18 diacid])AQ[αMe4Pal]AFIEYLIE[Aib]GPSSGAPPPSGS-NH2 [Example 860]	0.202 nM	11 nM	414 nM	19.2 nM	3.95 nM	565 nM						
H-Y[Aib]QGTFTSD[Phe(4-CN)]S[Orn][αMeL]LDKK([AEEA-AEEA-γGlu-C18 diacid])AQ[Aib]AFIEYLLE[Aib]GPSSGAPPPSGS-NH2 [Example 178]	0.34 nM	7.29 nM	397 nM	47.3 nM	4.01 nM	816 nM						
CC[C@H](C)[C@H](NC(=O)[C@H](Cc1ccccc1)NC(=O)[C@H](C)NC(=O)C(C)(C)NC(=O)[C@H](CCC(N)=O)NC(=O)[C@H](C)NC(=O)[C@H](CCCCNC(=O)CC[C@H](NC(=O)CC[C@H](NC(=O)CCCCCCCCCCCCCCCCC(=O)O)C(=O)O)C(=O)O)NC(=O)[C@H](CCCCN)NC(=O)[C@H](CC(=O)O)NC(=O)[C@H](CC(C)C)NC(=O)[C@H](CC(C)C)NC(=O)[C@@H](NC(=O)[C@H](CO)NC(=O)[C@H](Cc1ccncc1)NC(=O)[C@H](CC(=O)O)NC(=O)[C@H](CO)NC(=O)[C@@H](NC(=O)[C@](C)(Cc1ccccc1F)NC(=O)[C@@H](NC(=O)CNC(=O)[C@H](CCC(N)=O)NC(=O)C(C)(C)NC(=O)[C@@H](N)Cc1ccc(O)cc1)[C@@H](C)O)[C@@H](C)O)[C@@H](C)CC)C(=O)N[C@@H](CCC(=O)O)C(=O)N[C@@H](Cc1ccc(O)cc1)C(=O)N[C@@H](CC(C)C)C(=O)N[C@@H](CCC(=O)O)C(=O)N[C@@H](CCC(=O)O)C(=O)NCC(=O)NCC(=O)N1CCC[C@H]1C(=O)N[C@@H](CO)C(=O)N[C@@H](CO)C(=O)NCC(=O)N[C@@H](C)C(=O)N1CCC[C@H]1C(=O)N1CCC[C@H]1C(=O)N1CCC[C@H]1C(=O)N[C@@H](CO)C(N)=O [Example 413] (H-Y[Aib]QGT[αMePhe(2-F)]TSD[4Pal]SILLDKK([γGlu-γGlu-C18 diacid])AQ[Aib]AFIEYLEEGGPSSGAPPPS-NH2)			41.4 nM	23.5 nM		629 nM	0.0881 nM	6.3 nM	0.564 nM			
H-Y[Aib]QGT[αMePhe(2-F)]TSD[4Pal]SI[αMeL]LD[Orn]K([AEEA-γGlu-C18 diacid])AQ[αMe4Pal][Orn]FI[dE][αMeY]LIEGGPSSGDPPPEGE-NH2 [Example 727]			24.1 nM	1.09 nM		287 nM	0.0109 nM	2.38 nM	0.271 nM			
H-Y[Aib]QGT[αMePhe(2-F)]TSD[4Pal]SI[αMeL]LD[Orn]K([γGlu-γGlu-C18 diacid])AQ[αMe4Pal][Orn]FI[dE][αMeY]LIEGGPSSGEPPPEAE-NH2 [Example 684]			14.2 nM	0.436 nM		143 nM	0.00843 nM	2.16 nM	0.28 nM			
H-Y[Aib]QGTFTSD[4Pal]SQ[αMeL]LDKK([AEEA-γGlu-C18 diacid])AQ[αMe4Pal]QFIE[αMeY]LIEGGPSSGAPPPSGS-NH2 [Example 855]	0.271 nM	2.67 nM	207 nM	46.1 nM	0.908 nM	1030 nM						
Y[Aib]QGTFTSDYSI[αMeL]LDKQAAK([AEEA-AEEA-γGlu-C20 diacid])QFIEYLIA[Aib]GPSSGEPPPSEG-NH2 [Example 349]	0.152 nM	5.12 nM	218 nM	52.6 nM	0.555 nM	2280 nM						
H-Y[Aib]QGT[αMePhe(2-F)]TSD[4Pal]SI[αMeL]LD[Orn]K([AEEA-γGlu-C18 diacid])AQ[αMe4Pal][Orn]FI[dE][αMeY]LIEGGPSSGEPPPESEE-NH2 [Example 753]			38.2 nM	1.86 nM		351 nM	0.0127 nM	2.7 nM	0.271 nM			
H-Y[Aib]QGTFTSDFS[Orn][αMeL]LDKK([AEEA-γGlu-C20 diacid])AQ[Aib]AFIEYLLAGGPSSGEPPPSGS-NH2 [Example 92]	0.212 nM	12 nM	735 nM	62 nM	2.08 nM	2540 nM						
H-Y[Aib]QGT[αMeF]TSD[4Pal][αMeS]I[αMeL]LD[Orn]K([γGlu-γGlu-C18 diacid])AQ[αMe4Pal]EFI[dE][αMeY]LIEGGPSSGEPPPSGGGE-NH2 [Example 1175]	0.00962 nM	2.08 nM	60.7 nM	0.768 nM	0.572 nM	282 nM						
H-Y[Aib]QGTFTSDFS[Orn][αMeL]LDKK([AEEA-γGlu-C18 diacid])AQ[Aib]AFIEYLLAGGPSSGEPPPEGS-NH2 [Example 152]	0.259 nM	6.91 nM	491 nM	23.2 nM	4.03 nM	1090 nM						
H-Y[Aib]QGTFTSD[4Pal]SQ[αMeL]LD[Orn]K([γGlu-γGlu-C18 diacid])AQ[αMe4Pal]AFIEYLIAGGPSSGEPPPSGTEEE-NH2 [Example 986]	0.299 nM	4.94 nM			3.06 nM					380 nM	31.3 nM	702 nM
Y[Aib]QGTFTSD[4Pal]SQ[αMeL]LDKK([dE-γGlu-C18 diacid])AQ[αMe4Pal]AFIEYLIE[Aib]GPSSGAPPPSGSE-NH2 [Example 924]	0.0798 nM	6.05 nM	402 nM	15.7 nM	3.12 nM	910 nM						
H-Y[Aib]QGT[αMePhe(2-F)]TSD[4Pal][αMeS]I[αMeL]LD[Orn]K([AEEA-γGlu-C18 diacid])AQ[Aib][Orn]FIEYLIEGGPSSGEPPPEEG-NH2 [Example 476]			14.6 nM	1.29 nM		90.2 nM	0.0131 nM	1.34 nM	0.164 nM			

— patent US20240270821A1, “GIP/GLP1/GCG TRI-RECEPTOR AGONISTS AND USES THEREOF” (priority 2023, published 2024)
